From article PMC10303900, “Discovery of a New Chalcone-Trimethoxycinnamide Hybrid with Antimitotic Effect: Design, Synthesis, and Structure—Activity Relationship Studies” (Pharmaceuticals, 2023)
Read-outs that look alike come from different tables or passages of the source.

Tests used:
A375-C5 = assay: Sulforhodamine B (SRB) growth inhibition assay, melanoma cells; format: cell-based; settings: Homo sapiens, 48 h
Protocol: (§1) A sulforhodamine B (SRB) assay was performed to evaluate the in vitro growth inhibitory activity of all synthesized hybrids, as well as intermediates in the human tumor cell lines of melanoma (A375-C5), breast adenocarcinoma (MCF-7), and colorectal carcinoma (HCT116), as well as on the non-tumor Human Pulmonary Alveolar Epithelial cell line (HPAEpiC). The concentration inducing 50% cell growth inhibition (GI50), was calculated. […] The overall results prompt us to further investigate the mechanism behind the cytotoxic activities of compounds 6, 7, and 13 in colorectal tumor cells. Moreover, in silico studies were performed, aiming to screen for drug-likeness.
(§2) A375-C5 (melanoma) and MCF-7 (breast adenocarcinoma) cell lines were obtained from the European Collection of Cell Culture, UK, and were grown in RPMI-1640 medium (Roswell Park Memorial Institute, Biochrom, Cambridge, UK) with 5% inactivated FBS (fetal bovine serum, Biochrom). HCT-116 (colon adenocarcinoma) cells were grown in DMEM medium (Dulbecco’s Modified Eagle’s, Biochrom) with 5% inactivated FBS. The non-tumor human pulmonary alveolar epithelial cells (HPAEpiC) were obtained from ScienCell Research Laboratories and grown in DMEM medium supplemented with 10% FBS and 1% non-essential amino acids (Sigma-Aldrich Co., Saint Louis, MO, USA). All cell lines were maintained in a humidified incubator (Hera Cell, Heraeus, Hanau, Germany) at 37 °C and with 5% CO2, and cell viability was regularly monitored using the exclusion trypan blue dye.
(§3) A total of 5.0 × 10^4 A375-C5, MCF-7, and HCT-116 cells, or 6.0 × 10^4 HPAEpiC cells were seeded in 96-well plates and incubated at 37 °C and 5% CO2 to allow for cell attachment. After 24 h, cells were treated with two-fold serial dilutions of test compounds (0–150 µM), or with DMSO as the compound solvent. In parallel, cells in a time-zero (T0) plate, without treatment, were fixed with 50% (m/v) trichloroacetic acid (TCA, Merck Millipore, Darmstadt, Germany), for 1 h at 4 °C, and then washed with distilled water and left to dry. Forty-eight hours after compound treatment, cells were fixed with 50% TCA and stained with SRB (Sigma-Aldrich Co., Ltd., Gillingham, UK) for 30 min at room temperature, followed by 5 rounds of washing with 1% (v/v) acetic acid (Merck Milli-pore, Darmstadt, Germany). SRB–protein complexes were then solubilized with […] Tris buffer (Sigma-Aldrich Co., Ltd., Gillingham, UK) for 30 min, and the absorbance was measured at 515 nm in a microplate reader (Biotek Synergy 2, BioTek Instruments, Inc., Winooski, VT, USA). A dose-response curve was obtained for each cell line, and the concentration that caused 50% cell growth inhibition (GI50) was calculated.

HCT116 cells = assay: Mitotic arrest / mitotic index by phase-contrast microscopy; format: cell-based, human; settings: HCT116, 24 h
Protocol: Disruption of cell cycle progression is considered one of the most common cytotoxic mechanisms of anticancer drugs. Moreover, the antimitotic effect of BP-M345 (2) has been previously reported. Therefore, compounds 6, 7, and 13 were tested for their capability to induce cell cycle arrest. HCT116 cells were exposed for 24 h to the compounds and then analyzed using phase contrast microscopy for morphological changes. Untreated and dimethyl sulfoxide (DMSO; solvent)-treated cells were used as negative controls. Cell exposure to nocodazole, an antimitotic agent, was used as a positive control. […] We thus calculated the mitotic index (MI), and observed a significant increase in MI in 7-treated cells (22.76 ± 4.30%) compared to the untreated (12.68 ± 1.98%) or DMSO-treated (12.81 ± 1.45%) (Figure 4c).
A total of 1.2 × 10^5 HCT-116 cells were grown in six-well dishes and treated for 24 h with 3.26 µM of compound 7. Cells treated with 1 µM nocodazole were used as a positive control for antimitotic activity. Untreated cells and cells treated with DMSO were included to exclude the cytotoxicity of the compound solvent. Mitotic index, and the percentage of mitotic cells over the total cell population were determined via cell-rounding under phase-contrast microscopy from at least ten random microscope fields.
For phase contrast microscopy images, a Nikon TE 2000-U microscope (Nikon, Amsterdam, The Netherlands) with a 10× objective was used, coupled to a DXM1200F digital camera with Nikon ACT-1 software (Melville, NY, USA). For fluorescence images, an Axio Observer Z.1 SD microscope (Carl Zeiss, Germany) was used, coupled to an AxioCam MR3, with the Plan Apochromatic 63×/NA 1.4 objective. The images were processed using ImageJ, version 1.51.

HCT116 (HCT116 p53+/+) = assay: SRB growth inhibition assay, colorectal carcinoma cells; format: cell-based; settings: Homo sapiens, HCT-116
Protocol: as §1, §2, §3

HCT116 p53−/− = assay: SRB growth inhibition assay, p53 knocked-out colorectal cells; format: cell-based, human
Protocol: as §3

In the case of `CCCc1c(OCCNC(=O)/C=C/c2cc(OC)c(OC)c(OC)c2)ccc(C(=O)/C=C/c2cc(OC)c(OC)c(OC)c2)c1O` [Compound 7, (E)-N-(2-(3-hydroxy-2-propyl-4-((E)-3-(3,4,5-trimethoxyphenyl)acryloyl)phenoxy)ethyl)-3-(3,4,5-trimethoxyphenyl)acrylamide], the GI50 (A375-C5) is reported as 32.1 ± 1.27 µM, the “Mitotic index (MI)” value (HCT116 cells; at GI50 (3.26 µM), untreated 12.68 ± 1.98%) is reported as 22.76 ± 4.30% and the “Accumulation of bright and rounded (mitotic) cells” value (HCT116 cells; phase contrast microscopy) is reported as “accumulation of bright and rounded cells”. For the same molecule, the GI50 (HCT116 (HCT116 p53+/+); SRB, 48 h, read-out: GI50 HCT116) was 3.26 ± 1.39 µM, the GI50 (HCT116 (HCT116 p53+/+); Table 2, 48 h, read-out: GI50 HCT116 p53+/+) was 3.26 ± 1.39 µM and the “SI, selective index (GI50 of HCT116 p53−/−/GI50 of HCT116 p53+/+)” value (HCT116 p53−/−) was 0.40. The GI50 (HCT116 p53−/−; Homo sapiens, HCT-116, Table 2, 48 h) was 1.3 ± 0.09 µM.
